Reference: publication PMC11931151, “Inhibition of carbohydrate digestive enzymes by a complementary essential oil blend: in silico and mixture design approaches” (Frontiers in Pharmacology, 2025)
In brackets after ≈: the same amount, converted by molar mass.

Molecular target: T1, intestinal α-glucosidase
T1 construct: gene SI; called intestinal, sucrose as substrate (points to sucrase-isomaltase), but a commercial yeast enzyme cannot be excluded; docking model 2QMJ is human maltase-glucoamylase
Assay: sucrose hydrolysis, glucose oxidase-peroxidase, absorbance at […] nm
Format: biochemical
Conditions: phosphate pH 7.5, 37 °C, 20 min pre-incubation, positive control

## C[C@H]1O[C@H](O[C@H]2[C@H](O)[C@@H](O)[C@@H](O[C@H]3[C@H](O)[C@@H](O)C(O)O[C@@H]3CO)O[C@@H]2CO)[C@H](O)[C@@H](O)[C@@H]1N[C@H]1C=C(CO)[C@@H](O)[C@H](O)[C@H]1O (stereo partly shown) [acarbose]
  IC50: 59 ± 9 µg/mL (≈ 91.4 µM)
